System: PC12 cells
Experiment: Neurite differentiation of PC12 cells
Type: cell-based
Conditions: NGF alone (100 ng/mL), 4 days
Experimental: To further study the influence of TOFA on the nervous system, we tested the effect of TOFA on the differentiation of PC12 cells. PC12 cells were plated at a density of approximately 100-200/mm^2 on collagen coated plates or dishes in RPMI medium supplemented with 10% horse serum, 5% fetal calf serum, […] streptomycin, 50 U/mL penicillin in a water saturated atmosphere of 95% air and 5% CO2, at 37° C. overnight. Medium was replaced with fresh RPMI containing 1.5% serum, 100 ng/mL NGF and the indicated concentration of TOFA or an equivalent volume of vehicle (DMSO) giving a final concentration of 0.1% DMSO.
At different time points during the treatment, cells were photographed or fixed with 10% formalin. Morphology was examined after four days of treatment with TOFA or vehicle (DMSO). The number of cells beating neurites and average length of neurites were determined with the aid of the Bioquant imaging system. […] However, as depicted in Table 6 below, NGF alone induced a 15% increase in the number of cells bearing neurites and these outgrowths reached a mean length of 20 μm. Treatment with NGF and TOFA increased the percentage of cells beating neurites to 78%. Maximal neurite generation is observed at a concentration of 10 μM TOFA.
Cells were treated with vehicle (0.1% DMSO) or various concentrations of TOFA in the presence of 100 ng/mL NGF for 4 days, and then fixed with 10% formalin. At least eighty cells from eight wells were analyzed in each group. The results are shown as the mean ±SEM. ^a p<0.01, versus vehicle by Dunnetts test.

NGF: nerve growth factor
Mean length of neurite outgrowths: 20 μm | Number of cells bearing neurites: 15%

Source: patent US5607967A, “Treatment of alzheimer's disease with 5-(tetradecyloxy)-2-furan carboxylic acid” (Merck & Co., Inc., priority 1994, dated 1997)
